Test results from US10093630B2, “Pyrazole compounds and methods of making and using same” (ABIDE THERAPEUTICS, INC., priority 2014, dated 2018).
Read-outs that look alike come from different tables or passages of the source.

What was measured:
Test in all cases: In vitro competitive activity-based protein profiling (gel-based, FP-Rh or HT-01 probe)
Assay type in all cases: biochemical
FAAH = target: T1, FAAH (Mus musculus, UniProt O08914); conditions: for inhibition at 1 µM: 1 μM inhibitor, read-out: % Inhibition at 1 μM, B = FAAH; for IC50: mouse brain membrane fraction or cell lysates, 30 min preincubation at 37° C., read-out: Mouse (IC50 value, nM) FAAH; for inhibition at 10 µM: 10 μM inhibitor, read-out: % Inhibition at 10 μM, B = FAAH
T1 construct: Proteomes (mouse brain membrane fraction or cell lysates); from tissue; host or cells: mouse brain membrane fraction (or cell lysates, not specified)
T1 sequence (O08914 1-579): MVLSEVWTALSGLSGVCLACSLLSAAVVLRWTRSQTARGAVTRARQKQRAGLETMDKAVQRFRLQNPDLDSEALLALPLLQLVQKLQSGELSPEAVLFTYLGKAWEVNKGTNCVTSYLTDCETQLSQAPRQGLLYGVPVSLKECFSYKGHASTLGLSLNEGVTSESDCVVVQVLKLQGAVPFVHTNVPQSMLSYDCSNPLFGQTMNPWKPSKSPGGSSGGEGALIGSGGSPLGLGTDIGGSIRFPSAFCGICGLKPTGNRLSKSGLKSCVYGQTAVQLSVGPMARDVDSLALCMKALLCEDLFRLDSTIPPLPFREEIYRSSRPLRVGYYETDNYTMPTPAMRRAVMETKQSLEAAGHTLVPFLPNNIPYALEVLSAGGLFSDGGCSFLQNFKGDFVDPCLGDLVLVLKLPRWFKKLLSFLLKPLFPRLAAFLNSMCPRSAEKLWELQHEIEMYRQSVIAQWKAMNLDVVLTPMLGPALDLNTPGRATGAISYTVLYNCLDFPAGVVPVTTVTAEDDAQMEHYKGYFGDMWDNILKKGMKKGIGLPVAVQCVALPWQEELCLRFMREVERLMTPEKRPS
Summary of the method: (§1)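 Gel-based read-out: fluorescent band intensity after SDS-PAGE reflected remaining hydrolase activity. Inhibitors were preincubated 30 min at 37° C with 1.0 mg/mL mouse brain membrane or lysate proteome before a further 30 min at 37° C with FP-Rh or HT-01 probe.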

ABHD6 = target: T2, ABHD6 (Mus musculus, UniProt Q8R2Y0); conditions: for inhibition at 1 µM: 1 μM inhibitor, read-out: % Inhibition at 1 μM, C = ABHD6; for IC50: mouse brain membrane fraction or cell lysates, 30 min preincubation at 37° C., read-out: Mouse (IC50 value, nM) ABHD6; for inhibition at 10 µM: 10 μM inhibitor, read-out: % Inhibition at 10 μM, C = ABHD6
T2 construct: Proteomes (mouse brain membrane fraction or cell lysates); from tissue; host or cells: mouse brain membrane fraction (or cell lysates, not specified)
T2 sequence (Q8R2Y0 1-336): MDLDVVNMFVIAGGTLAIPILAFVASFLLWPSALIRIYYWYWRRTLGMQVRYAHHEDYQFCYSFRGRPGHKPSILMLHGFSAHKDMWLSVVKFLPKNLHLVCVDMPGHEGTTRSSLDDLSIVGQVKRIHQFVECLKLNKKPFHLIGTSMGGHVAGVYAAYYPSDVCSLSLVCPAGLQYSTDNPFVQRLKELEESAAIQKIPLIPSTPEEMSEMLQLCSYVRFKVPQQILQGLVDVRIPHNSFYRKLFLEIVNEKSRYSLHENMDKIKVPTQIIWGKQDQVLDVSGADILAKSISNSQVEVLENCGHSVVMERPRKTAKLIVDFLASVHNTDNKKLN
Summary of the method: as §1

MAGL = target: T3, MAGL (Mus musculus, UniProt O35678); conditions: for inhibition at 1 µM: 1 μM inhibitor; for IC50: mouse brain membrane fraction or cell lysates, 30 min preincubation at 37° C., read-out: Mouse (IC50 value, nM) MAGL; for inhibition at 10 µM: 10 μM inhibitor
T3 construct: Proteomes (mouse brain membrane fraction or cell lysates); from tissue; host or cells: mouse brain membrane fraction (or cell lysates, not specified)
T3 sequence (O35678 1-303): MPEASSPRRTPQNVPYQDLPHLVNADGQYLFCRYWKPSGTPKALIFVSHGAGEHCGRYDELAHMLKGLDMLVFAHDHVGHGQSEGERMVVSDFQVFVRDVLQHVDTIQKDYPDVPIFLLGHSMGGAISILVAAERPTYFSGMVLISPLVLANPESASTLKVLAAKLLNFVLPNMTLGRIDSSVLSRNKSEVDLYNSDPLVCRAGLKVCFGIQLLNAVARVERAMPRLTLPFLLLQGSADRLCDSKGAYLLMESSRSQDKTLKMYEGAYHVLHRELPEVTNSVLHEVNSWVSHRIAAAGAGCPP
Summary of the method: as §1

PLA2G7 = target: T4, PLA2G7 (Mus musculus, UniProt Q60963); conditions: for inhibition at 1 µM: 1 μM inhibitor, read-out: % Inhibition at 1 μM, D = PLA2G7; for IC50: mouse brain membrane fraction or cell lysates, 30 min preincubation at 37° C.; for inhibition at 10 µM: 10 μM inhibitor, read-out: % Inhibition at 10 μM, D = PLA2G7
T4 construct: Proteomes (mouse brain membrane fraction or cell lysates); from tissue; host or cells: mouse brain membrane fraction (or cell lysates, not specified)
T4 sequence (Q60963 22-440): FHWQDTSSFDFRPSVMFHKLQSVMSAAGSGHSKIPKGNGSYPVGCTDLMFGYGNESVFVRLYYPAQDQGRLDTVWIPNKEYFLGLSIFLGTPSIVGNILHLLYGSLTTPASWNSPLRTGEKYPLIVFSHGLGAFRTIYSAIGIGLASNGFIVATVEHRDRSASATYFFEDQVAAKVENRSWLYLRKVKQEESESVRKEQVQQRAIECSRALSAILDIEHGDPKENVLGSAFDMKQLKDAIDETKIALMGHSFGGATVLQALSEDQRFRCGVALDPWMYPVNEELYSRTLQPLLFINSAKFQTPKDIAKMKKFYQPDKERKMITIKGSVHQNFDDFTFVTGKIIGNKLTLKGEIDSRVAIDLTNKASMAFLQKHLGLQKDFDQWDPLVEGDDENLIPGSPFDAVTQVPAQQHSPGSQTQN
Summary of the method: as §1

Row | inhibition at 1 µM (FAAH; gel-based competitive ABPP) [%] | IC50 (FAAH) [nM] | inhibition at 1 µM (ABHD6; gel-based competitive ABPP) [%] | IC50 (ABHD6) [nM] | inhibition at 1 µM (MAGL; gel-based competitive ABPP) [%] | IC50 (MAGL) [nM] | inhibition at 1 µM (PLA2G7; gel-based competitive ABPP) [%] | IC50 (PLA2G7) [nM] | inhibition at 10 µM (FAAH; gel-based competitive ABPP) [%] | inhibition at 10 µM (ABHD6; gel-based competitive ABPP) [%] | inhibition at 10 µM (MAGL; gel-based competitive ABPP) [%] | inhibition at 10 µM (PLA2G7; gel-based competitive ABPP) [%] | inhibition at 1 µM (FAAH) [%] | inhibition at 10 µM (FAAH) [%] | inhibition at 1 µM (ABHD6) [%] | inhibition at 10 µM (ABHD6) [%] | inhibition at 1 µM (MAGL) [%] | inhibition at 10 µM (MAGL) [%] | inhibition at 1 µM (PLA2G7) [%] | inhibition at 10 µM (PLA2G7) [%] | Structure (SMILES)
1 |  |  |  |  |  |  |  |  |  |  |  |  |  | < 25 | < 25 | > 75 |  | < 25 | < 25 | > 75 | O=C(c1cnn(C(=O)N2CCN(Cc3cncnc3)CC2)c1)N1CCOCC1 [Example 56, (4-(Morpholine-4-carbonyl)-1H-pyrazol-1-yl)(4-(pyrimidin-5-ylmethyl)piperazin-1-yl)methanone]
2 | > 75 | 100 to 1000 | > 75 | < 100 | > 75 | < 100 | > 75 | < 100 |  |  |  |  |  |  |  |  |  |  |  |  | O=C(N1CCN(Cc2cccc(N3CCOCC3)c2)CC1)n1cc(C(F)(F)F)cn1 [Example 274, (4-(3-Morpholinobenzyl)piperazin-1-yl)(4-(trifluoromethyl)-1H-pyrazol-1-yl)methanone]
3 |  |  |  |  |  |  |  |  |  |  |  |  |  | 25 to 75 | < 25 | > 75 |  | < 25 | < 25 | > 75 | O=C(c1cnn(C(=O)N2CCN(Cc3ccncn3)CC2)c1)N1CCCC1 [Example 82, (4-(Pyrimidin-4-ylmethyl)piperazin-1-yl)(4-(pyrrolidine-1-carbonyl)-1H-pyrazol-1-yl)methanone]
4 |  |  |  |  |  |  |  |  |  |  |  |  | < 25 | 25 to 75 | 25 to 75 | > 75 | < 25 | < 25 | > 75 | > 75 | O=C(c1cnn(C(=O)N2CCN(Cc3cccnc3)CC2)c1)N1CCCCC1 [Example 71, Piperidin-1-yl(1-(4-(pyridin-3-ylmethyl)piperazine-1-carbonyl)-1H-pyrazol-4-yl)methanone]

The next lines start with the compound.

Row | Structure (SMILES) | inhibition at 1 µM (FAAH; gel-based competitive ABPP) [%] | IC50 (FAAH) [nM] | inhibition at 1 µM (ABHD6; gel-based competitive ABPP) [%] | IC50 (ABHD6) [nM] | inhibition at 1 µM (MAGL; gel-based competitive ABPP) [%] | IC50 (MAGL) [nM] | inhibition at 1 µM (PLA2G7; gel-based competitive ABPP) [%] | IC50 (PLA2G7) [nM] | inhibition at 10 µM (FAAH; gel-based competitive ABPP) [%] | inhibition at 10 µM (ABHD6; gel-based competitive ABPP) [%] | inhibition at 10 µM (MAGL; gel-based competitive ABPP) [%] | inhibition at 10 µM (PLA2G7; gel-based competitive ABPP) [%] | inhibition at 1 µM (FAAH) [%] | inhibition at 10 µM (FAAH) [%] | inhibition at 1 µM (ABHD6) [%] | inhibition at 10 µM (ABHD6) [%] | inhibition at 1 µM (MAGL) [%] | inhibition at 10 µM (MAGL) [%] | inhibition at 1 µM (PLA2G7) [%] | inhibition at 10 µM (PLA2G7) [%]
5 | CCN(Cc1ccc(C)cc1)C(=O)n1cc(C(F)(F)F)cn1 [Example 256, N-Ethyl-N-(4-methylbenzyl)-4-(trifluoromethyl)-1H-pyrazole-1-carboxamide] | > 75 | < 100 | < 25 | > 1000 | 25 to 75 | > 1000 | < 25 | > 1000 |  |  |  |  |  |  |  |  |  |  |  | 
6 | CCN(Cc1ccc(Cl)cc1)C(=O)n1cc(C#N)cn1 [Example 252, N-(4-Chlorobenzyl)-4-cyano-N-ethyl-1H-pyrazole-1-carboxamide] | > 75 | < 100 | < 25 | > 1000 | > 75 | 100 to 1000 | < 25 |  | > 75 | > 75 | > 75 | 25 to 75 |  |  |  |  |  |  |  | 
7 | Cc1cnn(C(=O)N2CCN(Cc3cccc(OCc4ccccc4)c3)CC2)c1 [Example 297, (4-(3-(Benzyloxy)benzyl)piperazin-1-yl)(4-methyl-1H-pyrazol-1-yl)methanone] | > 75 |  | > 75 |  | > 75 |  | < 25 |  |  |  |  |  |  |  |  |  |  |  |  | 
8 | COc1cc(-c2ccccc2)ccc1CN1CCN(C(=O)n2cc(C(F)(F)F)cn2)CC1 [Example 144, (4-((3-Methoxybiphenyl-4-yl)methyl)piperazin-1-yl)(4-(trifluoromethyl)-1H-pyrazol-1-yl)methanone] |  |  |  |  |  |  |  |  |  |  |  |  | > 75 | > 75 | > 75 | > 75 | > 75 | > 75 | > 75 | > 75
9 | Cc1cnn(C(=O)N2CCN(Cc3ccc(Oc4ccccc4)cc3)CC2)c1 [Example 17, (4-Methyl-1H-pyrazol-1-yl)(4-(4-phenoxybenzyl)piperazin-1-yl)methanone] |  |  |  |  |  |  |  |  |  |  |  |  | 25 to 75 | > 75 | > 75 | > 75 | > 75 | > 75 | 25 to 75 | < 25
10 | N#Cc1cnn(C(=O)N2CCCN(Cc3ccccc3)CC2)c1 [Example 179, 1-(4-Benzyl-1,4-diazepane-1-carbonyl)-1H-pyrazole-4-carbonitrile] |  | < 100 |  | > 1000 |  | > 1000 |  | > 1000 |  |  |  |  | > 75 | > 75 | > 75 | > 75 | > 75 | > 75 | < 25 | > 75
11 | Cc1cnn(C(=O)NCCCc2ccccc2)c1 [Example 32, 4-Methyl-N-(3-phenylpropyl)-1H-pyrazole-1-carboxamide] |  |  |  |  |  |  |  |  |  |  |  |  |  | < 25 |  | < 25 |  | < 25 |  | < 25
12 | COc1cccc(N2CCN(C(=O)n3cc(C(F)(F)F)cn3)CC2)c1 [Example 234, (4-(3-Methoxyphenyl)piperazin-1-yl)(4-(trifluoromethyl)-1H-pyrazol-1-yl)methanone] |  | < 100 |  | < 100 |  | < 100 |  | < 100 |  |  |  |  | > 75 | > 75 | > 75 | > 75 | > 75 | > 75 | > 75 | > 75
13 | O=C(N1CCN(Cc2ccc(-c3ccccc3)cc2OCc2ccccc2)CC1)n1cc(Cl)cn1 [Example 148, (4-((3-(Benzyloxy)biphenyl-4-yl)methyl)piperazin-1-yl)(4-chloro-1H-pyrazol-1-yl)methanone] |  |  |  |  |  |  |  |  |  |  |  |  | > 75 | > 75 | > 75 | > 75 | > 75 | > 75 | < 25 | < 25
14 | CC(=O)N1CCCN(C(=O)n2cc(C)cn2)CC1 [Example 165, 1-(4-(4-Methyl-1H-pyrazole-1-carbonyl)-1,4-diazepan-1-yl)ethanone] |  |  |  |  |  |  |  |  |  |  |  |  |  | 25 to 75 |  | < 25 |  | < 25 |  | < 25
